The source made the active and inactive calls. No cut-off for these calls is given here.

The subject of test [1] is Plasmodium yoelii. Nature of the test: Antimalarial activity against Plasmodium yoelii N-67 infected Swiss mouse assessed as mean survival time at 200 mg/kg, ip qd administered 4 days measured 24 hr post last treatment (reference value: 8.2 +/- 0.86 days). It counts as functional. The note with it: route intraperitoneal.
The test system of test [2] is Plasmodium yoelii. In words: Antimalarial activity against Plasmodium yoelii N-67 infected Swiss mouse assessed as parasitemia at 200 mg/kg, ip qd administered 4 days measured on day 7 (reference value: 19.5 +/- 0.76 %). It counts as functional. The note with it: route intraperitoneal.
Test [3] relates to Plasmodium yoelii. In words: Antimalarial activity against Plasmodium yoelii N-67 infected Swiss mouse assessed as parasitemia at 200 mg/kg, ip qd administered 4 days measured 24 hr post last treatment (reference value: 12.36 +/- 1.14 %). In kind it is functional. The note with it: route intraperitoneal.
In the next test the test system is Escherichia coli. Nature of the test: Antibacterial activity against Escherichia coli at 100 ug after 24 hr by cup-plate method. It counts as functional, organism-based.
Another test has as its system Staphylococcus aureus. In words: Antibacterial activity against Staphylococcus aureus at 100 ug after 24 hr by cup-plate method. It counts as functional, organism-based.

With `Cc1nc2ccccc2c(=O)n1-c1ccc([N+](=O)[O-])cc1`, in the test on Plasmodium yoelii [1], the MST amounted to 7 days. In addition, the results for the Activity in the test with Plasmodium yoelii [2] and in the test with Plasmodium yoelii [3] were 25.5% and 10.43%, respectively. Also, the result in the test with Escherichia coli and with Staphylococcus aureus was inactive.
Consider `Cc1nc2ccccc2c(=O)n1CC(=O)O`, for which, in the test on Plasmodium yoelii [1], the MST was found to be 6.6 days. The Activity in the test with Plasmodium yoelii [2] came to 17.2%; in the test with Plasmodium yoelii [3], 10.5%. The outcome in the test with Escherichia coli and with Staphylococcus aureus was inactive.
With `Cc1nc2ccccc2c(=O)n1[C@@H](CS)C(=O)O`, the MST with Plasmodium yoelii [1] is 7.4 days. Further, the Activity with Plasmodium yoelii [2] is reported as 25%; in the test with Plasmodium yoelii [3] it was 11.9%. For the same molecule, the result in the test on Escherichia coli and in the test with Staphylococcus aureus was inactive.
Take `Cc1nc2ccccc2c(=O)n1[C@@H](CCCCN)C(=O)O`: the MST in the test with Plasmodium yoelii [1] stood at 6.8 days. Also, the Activity in the test on Plasmodium yoelii [2] is reported as 17.5%; with Plasmodium yoelii [3], 9.78%. The outcome with Escherichia coli and in the test with Staphylococcus aureus was inactive.
Regarding `Cc1nc2ccccc2c(=O)n1[C@@H](CCC(=O)O)C(=O)O`, the MST in the test with Plasmodium yoelii [1] is 7.8 days. In addition, the figures for the Activity with Plasmodium yoelii [2] and in the test with Plasmodium yoelii [3] were 18.45% and 9.6%, respectively. The result in the test with Escherichia coli and in the test on Staphylococcus aureus was inactive.
Regarding `Cc1nc2ccccc2c(=O)n1-c1ccc(O)cc1`, in the test with Plasmodium yoelii [1], the MST was 6.8 days. For the same molecule, the values for the Activity in the test with Plasmodium yoelii [2] and with Plasmodium yoelii [3] were 16.8% and 10.52%, respectively. Besides, the outcome with Escherichia coli and in the test with Staphylococcus aureus was inactive.

The values are drawn from ChEMBL document CHEMBL3045079, “Synthesis, antimalarial and antibacterial activities of 3-amino acid- and aryl amine-substituted 2-methyl-3H-quinalzolin-4-ones” (2010).
